According to patent US10160986B2, “Chemoenzymatic synthesis of heparin and heparan sulfate analogs” (The Regents of the University of California, priority 2011, dated 2018):
Where two headings read alike, the source gives them in different places.

Columns and labels:
[1] = test system: NahK; test: Kinase reaction monitored by CE (ATP to ADP), NahK; assay type: biochemical, Bifidobacterium infantis; conditions: monosaccharide 15 mM, ATP 18 mM, 37° C.
Experimental: Capillary electrophoresis (CE) and thin-layer chromatograph (TLC) assays for kinase reactions. Kinase reactions were carried out at 37° C. in a total volume of 30 μL in Tris-HCl buffer (100 mM, pH 8.0) containing monosaccharide (15 mM), ATP (18 mM, 1.2 eq.), MgCl2 (10 mM), and a kinase (6 μg). These conditions were similar to those used for preparative-scale synthesis. After 1 hr, 4 hr, and 24 hr, an aliquot of 8 μL was withdrawn from each reaction mixture, boiled in a water bath for 5 min and stored at −20° C. until being analyzed by capillary electrophoresis (CE) and TLC. For TLC analysis, 0.5 μL of each sample was directly spotted on TLC plates, developed using suitable developing solvents, and stained with anisaldehyde sugar stain. For CE analysis, 1.5 μL of each sample was diluted into 30 μL and subjected to CE analysis as described above for pH profile studies.
General methods for compound purification and characterization. Chemicals were purchased and used without further purification. ^1H NMR and ^13C NMR spectra were recorded on a Varian Mercury 600 NMR spectrometer. High resolution electrospray ionization (ESI) mass spectra were obtained in negative mode using Thermo Electron LTQ-Orbitrap mass spectrometer. Silica gel 60 Å (Sorbent Technologies) was used for flash column chromatography. Thin-layer chromatography (TLC) was performed on silica gel plates 60 GF254 (Sorbent Technologies) using anisaldehyde sugar stain for detection. Gel filtration chromatography was performed with a column (100 cm×2.5 cm) packed with BioGel P-2 Fine resins (Bio-Rad). GlcN3 (T6-9) (Lau K, Thon, V, Yu H, Ding L, Chen Y, Muthana M M, Wong D, Huang R, and Chen X. Chem. Commun. 2010, 46, 6066-6068), ManF (T6-11) (Burkart M D, Zhang Z, Hung S-C, and Wong C-H. J. Am. Chem. Soc. 1997, 119, 11743-11746; Cao H, Li Y, Lau K, Muthana S, Yu H, Cheng J, Chokhawala H A, Sugiarto G, Zhang L, and Chen X. Org. Biomol. Chem. 2009, 7, 5137-5145), GalN3 (T6-4) and ManN3 (T6-14) (Yu H, Yu H, Karpel R, cand Chen X. Bioorg. Med. Chem. 2004, 12, 6427-6435) were previously synthesized using reported methods. NahK_ATCC15697, EcGalK, SpGalK, and PmPpA were overexpressed as described previously.

[2] = biological target: NahK_ATCC15697 (Bifidobacterium longum, UniProt B7GN78); test: Substrate specificity CE assay, NahK_ATCC15697; assay type: biochemical, Bifidobacterium infantis
Experimental: (§1) Substrates specificity assays. GlcNAc, GalNAc, and their derivatives (1 mM) were used as substrates in the presence of ATP (1 mM) and MgCl2 (5 mM) in a Tris-HCl buffer (pH 8.0, 200 mM) to analyze the substrate specificity of NahKs. Two concentrations (0.75 μM or 15 μM) of each NahK were used and the reactions were allowed to proceed for 10 min (for 0.75 μM NahK) or 30 min (for 15 μM NahK) at 37° C. […] All other conditions were the same as for GlcNAc, GalNAc, and their derivatives.
(§2) Capillary electrophoresis (CE) assays. Based on the detection of ADP and ATP in the reaction mixture by a UV detector, a capillary electrophoresis-based method was developed to directly measure the formation of ADP and N-acetylhexosamine-1-phosphate from ATP and N-acetylhexosamine for characterizing the activities of NahKs.

[3] = biological target: NahK_ATCC55813 (Bifidobacterium longum subsp. longum, UniProt E8MF12, D7V/R348H); assay type: biochemical; design: made in house; host or cells: E. coli BL21(DE3)
Experimental: as §1, §2

[4] = Glc, Gal, Man, ManNAc and derivatives, enzyme 15, 37° C. for 30 min (Table 3)
[5] = 0.75 μM enzyme, 10 min at 37° C., substrate 1 mM, ATP 1 mM
[6] = 15 μM enzyme, 30 min at 37° C., substrate 1 mM, ATP 1 mM (Table 2)
[7] = Glc, Gal, Man, ManNAc and derivatives, enzyme 15, 37° C. for 30 min (Table 3), listed as drawing 49

SMILES | Percentage Conversion [2, 4] [%] | Percentage Conversion [3, 4] [%] | Percentage Conversion [2, 5] [%] | Percentage Conversion [2, 6] [%] | Percentage Conversion [3, 5] [%] | Percentage Conversion [3, 6] [%] | also measured
OCC1OC(O)C[C@@H](O)[C@@H]1O (some centres unmarked) [2-deoxy glucose] | 44.8 ± 0.2 | 28.4 ± 0.1 | – | – | – | – | ATP Conversion ([1]; 1 hr): 36.8%; ATP Conversion ([1]; 4 hr): 69.6%; ATP Conversion ([1]; 24 hr): 79.4%
NC1C(O)OC(CO)[C@@H](O)[C@@H]1O (some centres unmarked) [2-amino-2-deoxy-glucose] | – | – | 0 | 15.0 ± 0.1 | 0 | 8.4 ± 0.1 | ATP Conversion ([1]; 1 hr): 11.9%; ATP Conversion ([1]; 4 hr): 28.0%; ATP Conversion ([1]; 24 hr): 67.1%
O=C(CO)NC1C(O)OC(CO)[C@@H](O)C1O (some centres unmarked) | 7.6 ± 0.1 | 5.4 ± 0.2 | – | – | – | – | –
CC(=O)NC1C(O)OC(C)[C@@H](O)C1O (some centres unmarked) [6-deoxy-GlcNAc] | – | – | 4.4 ± 1.2 | 41.8 ± 0.3 | 2.1 ± 0.2 | 36.3 ± 0.3 | –
[N-]=[N+]=NC1C(O)OC(COS(=O)(=O)O)[C@@H](O)[C@@H]1O (some centres unmarked) [6-O-sulfo-2-azido-2-deoxy glucose] | – | – | 0 | 6.9 ± 0.1 | 0 | 4.4 ± 0.1 | –
COCC(=O)NC1C(O)OC(CO)[C@@H](O)C1O (some centres unmarked) | 12.0 ± 0.4 | 7.4 ± 0.3 | – | – | – | – | –
N[C@@H]1C(O)O[C@H](CO)[C@@H](O)[C@@H]1O (some centres unmarked) [T6-13 ManNH2, mannosamine] | – | – | – | – | – | – | ATP Conversion ([1]; 1 hr): 10.3%; ATP Conversion ([1]; 4 hr): 22.8%; ATP Conversion ([1]; 24 hr): 58.0%
O=S(=O)(O)NC1C(O)OC(CO)[C@@H](O)C1O (some centres unmarked) [2-N-sulfo-glucose] | – | – | 0 | 6.4 ± 0.2 | 0 | 4.0 ± 0.1 | –
[N-]=[N+]=NC1C(O)OC(CO)[C@@H](O)C1O (some centres unmarked) [2N3-Man] | 53.3 ± 0.1 | 40.2 ± 0.2 | – | – | – | – | ATP Conversion ([1]; 1 hr): 34.9%; ATP Conversion ([1]; 4 hr): 65.9%; ATP Conversion ([1]; 24 hr): 76.4%
O=C(NC1C(O)OC(COS(=O)(=O)O)[C@@H](O)C1O)C(F)(F)F (some centres unmarked) [6-O-sulfo-N-trifluoroacetyl glucosamine] | – | – | 0 | 7.2 ± 0.1 | 0 | 3.3 ± 0.2 | –
CC(=O)NC1C(O)OC(COS(=O)(=O)O)[C@@H](O)C1O (some centres unmarked) [6-O-sulfo-GlcNAc] | – | – | 0 | 11.7 ± 0.2 | 0 | 6.6 ± 0.1 | –
COCC1OC(O)C(NC(C)=O)[C@@H](O)[C@@H]1O (some centres unmarked) [N-acetyl-6-O-methylmannosamine] | 32.6 ± 0.1 | 28.9 ± 0.1 | – | – | – | – | –
CCCC(=O)NC1C(O)OC(CO)[C@H](O)C1O (some centres unmarked) [GalNBu] | – | – | 12.1 ± 0.3 | – | 24.0 ± 0.1 | – | –
O=C(NC1C(O)OC(CO)[C@H](O)C1O)C(F)(F)F (some centres unmarked) [GalNTFA] | – | – | 11.2 ± 1.6 | – | 21.8 ± 0.2 | – | –
[N-]=[N+]=N[C@@H](C=O)[C@@H](OS(=O)(=O)O)[C@H](O)[C@H](O)CO [3-O-sulfo-2-azido-2-deoxy glucose] | – | – | 0 | 4.9 ± 0.1 | 0 | 3.9 ± 0.1 | –
CCCC(=O)NC1C(O)OC(CO)[C@@H](O)C1O (some centres unmarked) [GlcNBu] | – | – | 20.9 ± 0.6 | – | 35.0 ± 2.0 | – | –
O=C(CF)NC1C(O)OC(CO)[C@@H](O)C1O (some centres unmarked) | 12.0 ± 0.1 | 9.1 ± 0.2 | – | – | – | – | –
[N-]=[N+]=NCC(=O)NC1C(O)OC(CO)[C@H](O)C1O (some centres unmarked) [GalNAcN3] | – | – | 9.9 ± 0.6 | – | 21.0 ± 1.2 | – | –
CC(=O)NC1C(O)OC(CN=[N+]=[N-])[C@@H](O)C1O (some centres unmarked) [6-azido-6-deoxy-GlcNAc] | – | – | 0 | 37.2 ± 0.5 | 0 | 23.4 ± 0.1 | –
[N-]=[N+]=NCC(=O)NC1C(O)OC(CO)[C@@H](O)C1O (some centres unmarked) [GlcNAcN3] | – | – | 11.5 ± 1.0 | – | 22.8 ± 0.4 | – | –
COC1C(O)OC(CO)[C@@H](O)C1O (some centres unmarked) [2Me-Man] | 9.4 ± 0.5 | 0 | – | – | – | – | –
O=C(NC1C(O)OC(CO)[C@H](O)C1O)c1ccccc1 (some centres unmarked) [GalNBz] | – | – | 0 | 62.2 ± 1.0 | 0 | 51.9 ± 0.5 | –
OCC1OC(O)C(O)[C@@H](O)[C@@H]1O (some centres unmarked) [Man, mannose] | – | – | – | – | – | – | ATP Conversion ([1]; 1 hr, listed as T6-11 Man): 29.6%; ATP Conversion ([1]; 4 hr, listed as T6-11 Man): 69.3%; ATP Conversion ([1]; 24 hr, listed as T6-11 Man): 75.1%; Percentage Conversion [2, 7]: 68.0 ± 1.7%; Percentage Conversion [3, 7]: 37.1 ± 0.4%
CC(=O)NC1C(O)OC(CO)[C@@H](O)[C@@H]1O (some centres unmarked) [GlcNAc, N-acetylglucosamine] | – | – | 35.4 ± 0.1 | – | 42.3 ± 0.2 | – | ATP Conversion ([1]; 1 hr): 72.6%; ATP Conversion ([1]; 4 hr): 84.6%; ATP Conversion ([1]; 24 hr): 85.5%
CC(=O)N[C@@H]1C(O)O[C@H](CO)[C@@H](O)[C@@H]1O (some centres unmarked) [N-acetylmannosamine] | 8.9 ± 0.1 | 5.5 ± 0.1 | – | – | – | – | ATP Conversion ([1]; 1 hr): 11.4%; ATP Conversion ([1]; 4 hr): 26.1%; ATP Conversion ([1]; 24 hr): 73.8%
O=C(NC1C(O)OC(CO)[C@@H](O)C1O)C(F)(F)F (some centres unmarked) [GlcNTFA] | – | – | 10.7 ± 0.9 | – | 16.2 ± 0.9 | – | –
O=C(NC1C(O)OC(CO)[C@@H](O)C1O)c1ccccc1 (some centres unmarked) [GlcNBz] | – | – | 10.3 ± 0.4 | – | 5.2 ± 0.2 | – | –
OCC1CC(O)C(O)C(O)O1 (centres unmarked) [4-deoxyMan] | 37.1 ± 0.2 | 23.9 ± 0.1 | – | – | – | – | –
[N-]=[N+]=NCC(=O)N[C@@H]1C(O)O[C@H](CO)[C@@H](O)[C@@H]1O (some centres unmarked) [N-azidoacetylmannosamine] | 20.3 ± 0.3 | 18.6 ± 0.4 | – | – | – | – | –
